Data set [1] concerns the target T1, Histone-arginine methyltransferase CARM1 (Homo sapiens, UniProt Q86X55).
T1 sequence (Q86X55 whole entry): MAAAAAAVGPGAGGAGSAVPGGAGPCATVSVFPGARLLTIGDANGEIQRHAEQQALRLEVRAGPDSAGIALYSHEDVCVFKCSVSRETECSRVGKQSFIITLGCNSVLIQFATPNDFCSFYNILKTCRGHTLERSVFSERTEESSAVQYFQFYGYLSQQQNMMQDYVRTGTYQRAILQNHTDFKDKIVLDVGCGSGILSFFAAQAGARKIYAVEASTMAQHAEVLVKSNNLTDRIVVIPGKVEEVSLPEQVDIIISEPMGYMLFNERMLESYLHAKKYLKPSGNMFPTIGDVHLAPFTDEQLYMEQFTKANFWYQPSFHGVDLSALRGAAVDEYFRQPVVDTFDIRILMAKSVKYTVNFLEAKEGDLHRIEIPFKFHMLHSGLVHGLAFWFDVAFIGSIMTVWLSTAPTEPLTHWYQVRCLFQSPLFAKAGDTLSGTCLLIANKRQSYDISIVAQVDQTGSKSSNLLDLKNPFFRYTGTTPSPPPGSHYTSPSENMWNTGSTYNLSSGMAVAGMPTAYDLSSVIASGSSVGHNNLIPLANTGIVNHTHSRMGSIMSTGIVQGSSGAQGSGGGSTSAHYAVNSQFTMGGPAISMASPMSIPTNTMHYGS
The data set can be described thus: Inhibition of CARM1 (unknown origin).

The target of data set [2] is T2, Protein arginine N-methyltransferase 8 (Homo sapiens, UniProt Q9NR22). Nature of the data set: Inhibition of PRMT8 (unknown origin) by AlphaLISA assay. Background: In Alpha technology, singlet oxygen from a donor bead excites a nearby acceptor bead.
Data set [3] can be described thus: in vitro. The note with it: mouse, liver microsomes. (Microsomes from liver hold many membrane-bound enzymes, among them those of drug oxidation.)
Description: Metabolic stability in mouse liver microsomes assessed as intrinsic clearance by LC-MS/MS analysis
Data set [4] addresses T3, Protein arginine N-methyltransferase 6 (Homo sapiens, UniProt Q96LA8). Nature of the data set: Inhibition of PRMT6 (unknown origin) by AlphaLISA assay.
Data set [5] in a line: in vitro. The note with it: mouse, liver microsomes. The source holds these as a separate data set.
Description: Metabolic stability in mouse liver microsomes assessed as microsomal intrinsic clearance by LC-MS/MS analysis
The target in data set [6] is Protein arginine N-methyltransferase 5 (Homo sapiens, UniProt O14744). The data set can be described thus: Inhibition of PRMT5 (unknown origin) by AlphaLISA assay.
Data set [7] has as its target T1, Histone-arginine methyltransferase CARM1. The data set can be described thus: Inhibition of CARM1 (unknown origin) using histone H3 (21 to 44 residues) and SAM as substrates by AlphaLISA assay.
In data set [8] the target is Protein arginine N-methyltransferase 3 (Homo sapiens, UniProt O60678). The data set can be described thus: Inhibition of PRMT3 (unknown origin) by AlphaLISA assay.
Data set [9] in a line: in vitro. The note with it: mouse, liver microsomes. This is another data set of the same source.
Description: Metabolic stability in mouse liver microsomes assessed as half life by LC-MS/MS analysis
The target of data set [10] is Protein arginine N-methyltransferase 1 (Homo sapiens, UniProt Q99873). Nature of the data set: Inhibition of PRMT1 (unknown origin) by AlphaLISA assay.
Data set [11] has as its system HCT-116. The data set can be described thus: Potency index, ratio of GSK3368715 IC50 to test compound IC50 for antiproliferative activity against human HCT-116 cells assessed as inhibition of cell growth by CCK-8 assay. The format is functional. (In general: Tetrazolium assays rely on reduction of a dye to a coloured formazan, in cell work by metabolically active cells.)

The subject of data set [12] is HCT-116. Nature of the data set: Antiproliferative activity against human HCT-116 cells assessed as inhibition of cell growth by CCK-8 assay. The format is functional, cell-based.
Data set [13] deals with T3, Protein arginine N-methyltransferase 6. Nature of the data set: Inhibition of N-terminal His tagged human recombinant PRMT6 (2 to 375 residues) expressed in Escherichia coli using SAM and Histone (1 to 21 residues) as substrate preincubated for 60 mins followed by substrate addition and measured after 40 mins by Topcount reader based analysis.
For data set [14], the target named is T1, Histone-arginine methyltransferase CARM1. Nature of the data set: Inhibition of N-terminal FLAG tagged human PRMT4 (2 to end residues) expressed in FreeStyle 293-F cells using SAM and rHistone H3.1 as substrate preincubated for 60 mins followed by substrate addition and measured after 40 mins by Topcount reader based analysis.
Data set [15] has as its target T2, Protein arginine N-methyltransferase 8. The data set can be described thus: Inhibition of PRMT8 (unknown origin) using SAM and Histone (1 to 21 residues) as substrate preincubated for 60 mins followed by substrate addition and measured after 40 mins by Topcount reader based analysis.
Data set [16] deals with HCT-116. The data set can be described thus: Induction of apoptosis in human HCT-116 cells assessed as late apoptotic cells at 0.63 uM measured after 72 hrs by Annexin V-FITC/PI staining based flow cytometry analysis (reference value: 1.53%). The format is functional.
Data set [17] deals with HCT-116. Nature of the data set: Induction of apoptosis in human HCT-116 cells assessed as dead cells at 2.5 uM measured after 72 hrs by Annexin V-FITC/PI staining based flow cytometry analysis (reference value: 1.07%). Type of data set: functional.
Data set [18] deals with HCT-116. Nature of the data set: Induction of apoptosis in human HCT-116 cells assessed as dead cells at 0.63 uM measured after 72 hrs by Annexin V-FITC/PI staining based flow cytometry analysis (reference value: 1.07%). Type of data set: functional.
For data set [19], the system named is HCT-116. The data set can be described thus: Induction of apoptosis in human HCT-116 cells assessed as late apoptotic cells at 1.25 uM measured after 72 hrs by Annexin V-FITC/PI staining based flow cytometry analysis (reference value: 1.53%). The format is functional.
Data set [20] has as its system HCT-116. The data set can be described thus: Induction of apoptosis in human HCT-116 cells assessed as late apoptotic cells at 5 uM measured after 72 hrs by Annexin V-FITC/PI staining based flow cytometry analysis (reference value: 1.53%). The format is functional.
In data set [21] the test system is HCT-116. Nature of the data set: Induction of apoptosis in human HCT-116 cells assessed as dead cells at 5 uM measured after 72 hrs by Annexin V-FITC/PI staining based flow cytometry analysis (reference value: 1.07%). The format is functional.
The test system of data set [22] is HCT-116. Nature of the data set: Induction of apoptosis in human HCT-116 cells assessed as late apoptotic cells at 2.5 uM measured after 72 hrs by Annexin V-FITC/PI staining based flow cytometry analysis (reference value: 1.53%). The format is functional.
Data set [23] has as its system HCT-116. Nature of the data set: Induction of apoptosis in human HCT-116 cells assessed as dead cells at 1.25 uM measured after 72 hrs by Annexin V-FITC/PI staining based flow cytometry analysis (reference value: 1.07%). The format is functional.

Some results are limits rather than exact numbers.

Broadly, the IC50 is the point on the concentration scale where inhibition reaches its midpoint. A word on the CLint scaled: it is the rate of metabolic loss divided by the concentration. Low values mean greater metabolic stability, high ones faster metabolism. Broadly, the microsomal CLint is the rate of metabolic loss divided by the concentration. A lower microsomal CLint goes with greater metabolic stability. For orientation: half-life means the time in which the quantity being followed falls by half. Read a low half-life as rapid decline.

Sequence of Protein arginine N-methyltransferase 1 (Q99873 whole entry): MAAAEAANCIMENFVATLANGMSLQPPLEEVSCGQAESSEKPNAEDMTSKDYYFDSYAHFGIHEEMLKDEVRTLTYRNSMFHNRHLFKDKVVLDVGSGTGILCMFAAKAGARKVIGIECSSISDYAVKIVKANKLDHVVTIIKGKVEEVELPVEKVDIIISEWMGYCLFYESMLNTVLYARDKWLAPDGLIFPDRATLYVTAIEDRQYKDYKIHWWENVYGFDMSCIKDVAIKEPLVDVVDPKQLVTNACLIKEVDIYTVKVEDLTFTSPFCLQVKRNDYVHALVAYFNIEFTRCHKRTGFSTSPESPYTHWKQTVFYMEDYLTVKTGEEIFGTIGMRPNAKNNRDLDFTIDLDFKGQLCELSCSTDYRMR
T2 sequence (Q9NR22 whole entry): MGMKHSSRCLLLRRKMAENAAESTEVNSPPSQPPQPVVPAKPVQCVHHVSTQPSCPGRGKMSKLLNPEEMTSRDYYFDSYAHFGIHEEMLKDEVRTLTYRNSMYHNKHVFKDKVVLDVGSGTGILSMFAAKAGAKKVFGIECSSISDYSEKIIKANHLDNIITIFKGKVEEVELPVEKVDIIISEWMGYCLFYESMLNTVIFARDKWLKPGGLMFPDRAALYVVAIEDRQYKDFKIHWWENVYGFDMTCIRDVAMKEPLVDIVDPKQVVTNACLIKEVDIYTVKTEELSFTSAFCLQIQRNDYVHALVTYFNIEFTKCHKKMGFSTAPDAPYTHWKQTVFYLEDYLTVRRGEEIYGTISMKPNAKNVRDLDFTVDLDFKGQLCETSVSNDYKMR
T3 sequence (Q96LA8 whole entry): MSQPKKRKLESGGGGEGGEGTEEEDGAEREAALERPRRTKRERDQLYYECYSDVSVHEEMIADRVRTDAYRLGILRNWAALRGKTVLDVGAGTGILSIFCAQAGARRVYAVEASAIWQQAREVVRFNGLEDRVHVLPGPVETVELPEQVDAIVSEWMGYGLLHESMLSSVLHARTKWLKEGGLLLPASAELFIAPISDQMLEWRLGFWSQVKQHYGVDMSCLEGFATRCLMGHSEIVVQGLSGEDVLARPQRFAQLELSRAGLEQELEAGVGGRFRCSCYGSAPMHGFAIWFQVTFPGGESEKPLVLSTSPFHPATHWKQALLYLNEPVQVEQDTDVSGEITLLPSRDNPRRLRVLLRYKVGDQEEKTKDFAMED
Sequence of Protein arginine N-methyltransferase 5 (O14744 whole entry, the tested form may be a part): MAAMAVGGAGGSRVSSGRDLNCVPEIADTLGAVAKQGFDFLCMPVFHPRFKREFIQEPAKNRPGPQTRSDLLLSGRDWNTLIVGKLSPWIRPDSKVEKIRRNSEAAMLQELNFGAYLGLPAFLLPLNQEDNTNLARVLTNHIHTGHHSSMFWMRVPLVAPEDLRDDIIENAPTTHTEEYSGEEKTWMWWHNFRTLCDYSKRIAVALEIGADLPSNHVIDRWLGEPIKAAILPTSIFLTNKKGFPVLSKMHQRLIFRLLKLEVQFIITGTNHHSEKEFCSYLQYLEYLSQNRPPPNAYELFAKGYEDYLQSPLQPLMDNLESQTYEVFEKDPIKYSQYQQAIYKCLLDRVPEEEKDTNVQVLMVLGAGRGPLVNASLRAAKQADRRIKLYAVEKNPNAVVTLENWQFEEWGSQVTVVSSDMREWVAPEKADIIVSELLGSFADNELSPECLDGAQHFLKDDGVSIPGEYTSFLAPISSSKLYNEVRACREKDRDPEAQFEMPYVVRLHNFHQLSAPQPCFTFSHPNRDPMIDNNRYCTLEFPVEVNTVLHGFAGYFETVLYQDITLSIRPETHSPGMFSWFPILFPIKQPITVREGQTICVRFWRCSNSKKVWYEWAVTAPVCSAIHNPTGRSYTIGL
Sequence of Protein arginine N-methyltransferase 3 (O60678 whole entry): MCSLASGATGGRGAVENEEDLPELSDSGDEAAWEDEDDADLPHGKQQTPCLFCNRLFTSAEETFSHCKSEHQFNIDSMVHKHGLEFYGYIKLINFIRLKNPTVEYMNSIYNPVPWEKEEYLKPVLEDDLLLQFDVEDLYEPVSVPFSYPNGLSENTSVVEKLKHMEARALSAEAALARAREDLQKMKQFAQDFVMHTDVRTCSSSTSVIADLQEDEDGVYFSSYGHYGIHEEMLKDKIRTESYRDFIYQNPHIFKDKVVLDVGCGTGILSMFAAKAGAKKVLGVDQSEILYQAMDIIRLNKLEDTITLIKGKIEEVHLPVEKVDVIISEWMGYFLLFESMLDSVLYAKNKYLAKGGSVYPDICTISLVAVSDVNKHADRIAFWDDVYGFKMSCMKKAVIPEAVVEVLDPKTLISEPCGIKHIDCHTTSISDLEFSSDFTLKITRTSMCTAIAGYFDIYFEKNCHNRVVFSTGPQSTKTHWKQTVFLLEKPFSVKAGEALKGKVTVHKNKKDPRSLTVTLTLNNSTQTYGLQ

As for `CNCCN1CCC(c2ccc3c(F)c(-c4ccccc4OC)[nH]c3c2)CC1`, the half-inhibitory concentration (IC50) in data set [1] is 30 nM.
In the case of `CNCCN(C)Cc1ccccc1OC1CCC(COC)(COC)CC1.Cl.Cl`, the concentration for half-maximal inhibition (IC50) in [2] was 24 nM; in [4], 12 nM; in data set [6], greater than 100000 nM; in [7], 7 nM; in data set [8], 493 nM; in data set [10], 56 nM. The IC50 in the data set on HCT-116 [12] came to 2960 nM. In the data set “in vitro [3]”, the CLint scaled is 120 mL/min/kg. In “in vitro [5]”, the intrinsic clearance (microsomal CLint) worked out at 30.4 µL/min/mg. The same molecule returned a half-life in “in vitro [9]” of 0.76 h. Also, the “Ratio IC50” value in the data set on HCT-116 [11] is greater than 10.
As to `CCOCC1(COCC)CCC(c2n[nH]cc2CN(C)CCNC)CC1`, the IC50 in data set [13] was 1.7 nM; in data set [7], 12 nM; in [14] it was 1.7 nM; in [15] it was 1.7 nM; in the data set with HCT-116 [12], 38200 nM.
With `CCOCC1(COCC)CCC(Oc2ccccc2CN(C)C[C@H](O)CNC)CC1`, the IC50 in data set [7] worked out at 37 nM; in data set [10] it was 281 nM.
As for `CCOCC1(COCC)CCC(Oc2ccccc2CN(C)C[C@@H](O)CNC)CC1`, the IC50 in data set [2] was 31 nM; in [4] it was 10 nM; in data set [6], greater than 100000 nM; in data set [7] it was 9 nM; in data set [8], 2640 nM; in [10] it was 56 nM. In the data set on HCT-116 [12], the half-inhibitory concentration (IC50) was 3130 nM. Besides, the Activity with HCT-116 [16] is 0.87%; in the data set with HCT-116 [17] it was 1.52%; in the data set on HCT-116 [18] it was 1.32%; with HCT-116 [19], 1.09%; in the data set with HCT-116 [20], 1.3%; in the data set with HCT-116 [21], 2.14%. For the same molecule, the Activity is recorded as 2.13% in the data set with HCT-116 [22] and 1.83% with HCT-116 [23]. For the same molecule, the CLint scaled in the data set “in vitro [3]” was determined as 25.3 mL/min/kg. The same molecule registered a microsomal CLint in “in vitro [5]” of 6.4 µL/min/mg. In “in vitro [9]”, this molecule gave a half-life of 3.62 h. In addition, the “Ratio IC50” value with HCT-116 [11] was greater than 10.
